Reference: EP0127864A2, “D-homo-4,9,16-estratrienes, their preparation and pharmaceutical compositions containing them” (SCHERING AKTIENGESELLSCHAFT, priority 1983, dated 1984)

System: Ratte
Assay: Abortive effect in pregnant rats (measure of antigestagenic activity)
Assay type: in vivo
Conditions: for n Abort / n Gesamt: subcutan, d5 p.c. to d7 p.c., uteri examined d9 p.c., absence of implants counted as abortion
Text: Zur Kennzeichnung der antigestagenen Wirkung wurde die abortive Wirkung bestimmt.
Die Versuche wurden an weiblichen Ratten im Gewicht von ca. 200 g durchgeführt. Nach erfolgter Anpaarung wurde der Schwangerschaftsbeginn durch Nachweis von Spermien in Vaginalabstrichen gesichert. Der Tag des Spermiennachweises gilt als Tag 1 der Gravidität (= dl p.c.).
Die Behandlung der Tiere mit der jeweils zu testenden Substanz bzw. dem Lösungsmittel erfolgte nach der Nidation der Blastocysten von d5 p.c. bis d7 p.c.
An d9 p.c. wurden die Tiere getötet und die Uteri auf Implantate und Resorptionsstellen hin untersucht. Von allen Uteri wurden Fotos angefertigt. Das Fehlen von Implantaten wurde als Abort gewertet.
Die Testsubstanzen wurden in einem Benzylbenzoat-Rizinusöl-Gemisch (Verhältnis 1 + 9) gelöst. Das Vehikelvolumen pro Einzeldosis betrug 0,2 ml. Die Behandlung erfolgte subcutan.

Compound	Wirksamkeit (Abortauslösung) (Dosierung 1,0 mg, result in words)	n Abort / n Gesamt (Dosis 0.3 mg/Tier/Tag)	n Abort / n Gesamt (Dosis 1.0 mg/Tier/Tag)	n Abort / n Gesamt (Dosis 3.0 mg/Tier/Tag)	n Abort / n Gesamt (Dosis 10.0 mg/Tier/Tag)	Aborte (Dosierung 1,0 mg) [%]
CC#C[C@]1(O)C=CC[C@H]2[C@@H]3CCC4=CC(=O)CCC4=C3[C@@H](c3ccc(N(C)C)cc3)C[C@@]21C [A, 11ß-(4-Dimethylaminophenyl)-17aß-hydroxy-17aα-(1-propinyl)-U-homo-4,9,16-estratrien-3-on]	voll wirksam	2/4	4/4	4/4	4/4	–
CC#C[C@]1(O)CC[C@H]2[C@@H]3CCC4=CC(=O)CCC4=C3[C@@H](c3ccc(N(C)C)cc3)C[C@@]21C [B, 11ß-(4-Dimethylaminophenyl)-17ß-hydroxy-17a-(propin-1-yl)-4,9(10)-estradien-3-on, reference compound]	–	–	2/4	4/4	4/4	50
